Experimental data from US6060516A, “N^1 -propargylhydrazines, N^2 -propargylhydrazines and their analogs for the treatment of depression, anxiety and neurodegeneration” (CV Technologies, Inc., priority 1998, dated 2000).

Key:
[1] = test system: NA, DA, 5-HT, 5-HIAA and DOPAC concentrations in rat hypothalamus; assay: Rat hypothalamus amine and amine metabolite concentrations; type: in vivo
Experimental: The effects of various doses of CVT-P040 on the concentrations of hypothalamus amine neurotransmitters and their metabolites were evaluated by examining concentrations of noradrenaline (NA), dopamine (DA), 5-hydroxytryptamine (5-HT), 5-hydroxyindoleacetic acid (5-HIAA) and 3,4-dihydroxyphenylacetic acid (DOPAC) in rat hypothalami 5 hours after the injection of the drug. […] The brains were removed and divided in half. One half of the brain was frozen in isopentane on dry ice and retained for estimates of amino acid neurotransmitter concentrations. The other half had the hypothalamus removed and frozen on dry ice for later estimates of amines and their metabolites according to the method of Sloley, B. D. and Goldberg J. I. (1991), Determination of γ-glutamyl conjugates of monoamines by means of high-performance liquid chromatography with electrochemical detection and application to gastropod tissues, J. Chromatog. 567: 49-56. The rest of the brain was frozen on dry ice for ex vivo examination of MAO activity as described earlier.

[2] = test system: rat brain and liver monoamine oxidase-B; assay: Monoamine oxidase-B inhibiting activity ex vivo; type: in vivo
Experimental: Radiolabelled β-phenylethylamine was employed as a substrate for monoamine oxidase-B. The compounds of interest were either injected intraperitoneally in DMSO or administered by gavage in water for various periods. The animals were killed by decapitation and the brains and livers immediately removed and frozen until assayed for monoamine oxidase-B activity. Tissues were homogenized and appropriately diluted in buffer prior to incubation. Incubations proceeded at 37° C. for 10 minutes. Incubation was terminated by the addition of acid and the radiolabelled product (phenylacetic acid) was extracted and quantified by liquid scintillation counting procedures. Incubations were done in triplicate and incubations containing phenelzine were included for comparison. The percent inhibition of monoamine oxidase-B activity compared to controls containing no drug was calculated.
Values are the mean ± the standard error based on (n) determinations.
Oral doses were administered as 75 μmol/kg on day 1, 75 μmol/kg on
day 2 and the animals were killed 5 hours later.

In the case of NNCCc1ccccc1 [phenelzine, 1-(2-phenyl) ethylhydrazine, reference compound], the 5-HIAA ([1]; 5.75 μmol/kg, 5 hr, ip) is reported as 334 ± 23 ng/g, the 5-HT ([1]; 5.75 μmol/kg, 5 hr, ip) is reported as 755 ng/g and the DA ([1]; 5.75 μmol/kg, 5 hr, ip) is reported as 544 ± 66 ng/g. For the same compound, the DOPAC ([1]; 5.75 μmol/kg, 5 hr, ip) was 89 ± 7 ng/g, the NA ([1]; 5.75 μmol/kg, 5 hr, ip) was 1468 ± 119 ng/g and the 5-HIAA ([1]; 150 μmol/kg, 5 hr, ip) was 131 ng/g. For the same compound, the 5-HT ([1]; 150 μmol/kg, 5 hr, ip) was 1583 ± 95 ng/g, the DA ([1]; 150 μmol/kg, 5 hr, ip) was 385 ng/g and the DOPAC ([1]; 150 μmol/kg, 5 hr, ip) was 51 ± 4 ng/g. The NA ([1]; 150 μmol/kg, 5 hr, ip) was 2113 ± 102 ng/g, the 5-HIAA ([1]; 2 × 75 μmol/kg per os) was 167 ng/g and the DOPAC ([1]; 2 × 75 μmol/kg per os) was 54 ± 4 ng/g. The NA ([1]; 2 × 75 μmol/kg per os) was 2148 ± 171 ng/g, the “% Inhibition of Monoamine Oxidase-B” value ([2]; brain, 5.75 μmol/kg, 5 hr, i.p. in 10% DMSO (Table 4, MAO-B by title)) was -2.7 ± 5.6% and the “% Inhibition of Monoamine Oxidase-B” value ([2]; brain, 150 μmol/kg, 5 hr, i.p. in 10% DMSO (Table 4, MAO-B by title)) was 83.3 ± 2.3%. The “% Inhibition of Monoamine Oxidase-B” value ([2]; brain, 2 × 75 μmol/kg per os (Table 4, MAO-B by title)) was 76.4 ± 3.4%, the “% Inhibition of Monoamine Oxidase-B” value ([2]; liver, 5.75 μmol/kg, 5 hr, i.p. in 10% DMSO (Table 4, MAO-B by title)) was 18.1 ± 5.8% and the “% Inhibition of Monoamine Oxidase-B” value ([2]; liver, 2 × 75 μmol/kg per os (Table 4, MAO-B by title)) was 95.6 ± 1.0%.
